Data as given in patent US20210386754A1, “COMPOSITIONS AND METHODS FOR TREATING ATHEROSCLEROTIC VASCULAR DISEASE” (AUGUSTA UNIVERSITY RESEARCH INSTITUTE, INC., priority 2020, published 2021).
Entries after “also recorded” stand apart in the source; their conditions may differ.

Key:
[1] = system: THP-1 macrophages; test: Foam cell formation / nLDL macropinocytosis, Nile Red FACS; format: cell-based, human; conditions: EIPA 25 μM, 1 hr pre-incubation; nLDL 50 μg/ml
Method: Flow cytometry experiments were performed using the BD Accuri C6 flow cytometer using a standard protocol.
(§1) Foam cell formation: THP-1 macrophages or bone marrow-derived macrophages were treated with vehicle, known macropinocytosis stimulators (PMA 1 μM, M-CSF 100 ng/mL or PDGF 200 ng/mL)+/− macropinocytosis inhibitors (imipramine 10 μM or EIPA 25 μM; 1 hour pre-incubation) in the presence of nLDL, ox-LDL, or ac-LDL ([…]) for 24 hours. Cells were fixed in 2% PFA and stained with Nile Red (50 ng/mL) for 7 min. Fluorescence intensity was measured using the FL3 channel for Nile Red (Ex: 488 nm, Em: 670 nm).

[2] = system: hypercholesterolemic mice (PCSK9-AAV-mediated LDLR knockdown); test: Atherosclerosis model: PCSK9-AAV, partial LCA ligation, Western diet; format: in vivo, mouse; conditions: for inhibition of atherosclerotic lesion area (ORO positive area, LCA): continuous infusion via subcutaneous osmotic pump
From the text: Mice were given a single injection of AAV-PCSK9 (1×1011 VG) and fed a Western diet (Envigo, TD.88137, Indianapolis, Ind.). One week after AAV-PCSK9 injection, mice underwent partial carotid ligation surgery as previously described (67) and Western diet was continued for another 3 weeks. In separate experiments, mice were given a single injection of AAV-PCSK9 (1×1011 VG) and fed a Western diet for 16 weeks. Mice were anesthetized (isoflurane inhalation, 3%) and exsanguinated. Blood was collected from left ventricle using a heparinized syringe fitted with a 21 G needle. Aortic arch and carotid arteries were collected, and gross macroscopic images were acquired. For molecular histology studies, carotids and aortic arch were fixed in 4% paraformaldehyde (PFA), embedded in OCT compound and stored at −80° C. until use.
ORO staining: Atherosclerosis development in carotid arteries and whole aorta were studied initially by gross imaging followed by Oil Red O (ORO) staining and plaque quantification. Briefly, the entire aorta was isolated, cleaned of peri-adventitial fat, fixed and imaged on the surface of black silicone-coated dissection dishes. Left carotid arteries were embedded in OCT and 10 μm thick cross-sections were prepared. The arteries were divided into 3 regions based on their distance from the aortic arch: proximal (0-400 μm), middle (2,000-2,400 μm) and distal (4,000-4,400 μm). Frozen sections and whole aortas were then stained with ORO solution (2%) and images were taken using light microscope equipped with a camera under 20× and 1.6× objective lens. The total area, lumen area and ORO positive area were measured for six sections/anatomical position per mouse using Image J software. The ratio of ORO positive area to arterial area is represented as plaque area. Plasma total cholesterol concentrations were determined by the Amplex™ Red Cholesterol Assay Kit (ThermoFisher, Rockford, Ill.). Plasma lipid profiles were obtained by column fractionation and measurements of fraction cholesterol content.
Hematoxylin and Eosin (H&E) or Masson's trichrome staining: Frozen sections were also used for Hematoxylin and Eosin (H&E) or Masson's trichrome staining following standard procedures to evaluate the lesion size and collagen content, respectively.
Orcein and Martius Scarlet Blue (OMSB) staining: OMSB was used for qualitative and quantitative analysis of atherosclerotic plaques as previously described. Briefly, left carotid arteries were dissected out, fixed in 4% buffered paraformaldehyde (pH=7.4) for at least 48 hr, and then routinely processed and embedded in paraffin (tissue processor TP1020; Leica, Wetzlar, Germany). Cross sections were cut every 5 m along the artery (starting from the proximal end) and mounted serially on silanized slides. Sections were stained and mounted automatically using Leica ST5010 Autostainer XL combined with Leica CV5030 Glass Coverslip. Deparaffinized sections through xylene and ethanol, and rehydrate to water. Postfix sections in Bouin's fixative at 56° C. for 1 hour, then rinse for 10 min in tap water to remove traces of picric acid. Stain with orcein for 20 min at 56° C. Differentiate in acidic alcohol for 2 min and then transfer to 96% ethanol for 30 s. Stain with martius yellow for 3 min and rinse in distilled water (2×2 min). Stain with crystal scarlet for 10 min. Differentiate with phosphotungstic acid 2 min and transfer to distilled water (for about 10 s). Stain with methyl blue 5 min. Rinse in acetic acid water 3 min, dehydrate through ethanol and carbol-xylene, clear in xylene, and mount in DPX or other resin. Staining of collagen with picrosirius red. The sections were examined and digital images of stained arteries were recorded using Olympus dotSlide system (Olympus, Tokyo, Japan). Segmentation algorithm allowed to distinguish vessel wall area, lumen area, plaque area, and area of the plaque occupied by collagen. The results were presented as areas of identified components in μm2. […]

[3] = system: CD36-/-/SR-A-/- BMDM overexpressing HRasG12V; test: Ras (HRasG12V)-induced ox-/ac-LDL internalization, Nile Red FACS; format: cell-based, mouse; conditions: EIPA 25 μM, 1 hr; 50 μg/mL ox-LDL or ac-LDL, 24 hr
Method: as §1
HRasG12V mutant adenovirus (AD-HRasG12V) and control adenovirus (AD-GFP) were obtained from Dr. Brian Stansfield. Adenovirus multiplicity of infection (MOI) was calculated according to the OD260 of the adenovirus. Macrophages grown at 60-70% confluence were incubated in 500 μl basal medium containing Ad-GFP or Ad-HRasG12V adenovirus at 200 MOI (multiplicity of infection). After 4 hours, media was replaced with fresh complete tissue culture medium for a continuous culture. Cells were treated as indicated within 48 hours after viral transfection and collected for flow cytometry. Overexpression of adenovirus was confirmed by measuring GFP fluorescence. Fluorescence intensity was measured using the FL1 channel GFP (Ex: 488 nm, Em: 530 nm).

[4] = system: RAW 264.7 macrophages; test: Measurement of cholesterol efflux (DiI); format: cell-based; conditions: EIPA 25 μM, 1 hour
Method: RAW 264.7 macrophages were pretreated with vehicle or EIPA (25 μM, 1 hour) and incubated with PMA (1 μM) in the presence or absence of Dil-LDL (50 μg/mL) at 37° C. for 24 h. Cells were washed 3 times with PBS, RPMI-1640 medium containing 1% FBS was added and cells incubated for another 24 hours. Finally, the medium was collected and Dil fluorescence intensity in the media was measured using a CLARIOstar multi-mode microplate reader.

[5] = EIPA vs vehicle, WT and CD36-/-/SR-A-/- mice
[6] = EIPA vs vehicle, WT and CD36-/-/SR-A-/- mice, LCA

With `CCN(c1nc(N)c(C(=O)N=C(N)N)nc1Cl)C(C)C` [EIPA, 5-(N-ethyl-N-isopropyl)amiloride] the “PMA-induced nLDL macropinocytosis” value [1] was “blocks macrophage macropinocytosis; also recorded: inhibits”, the “blood pressure (systolic)” value [2, 5] was “not different” and the body weight [2, 5] was “not different”. The “CD68+ macrophage staining” value [2, 6] was “significantly decreased”, the “Collagen content (Masson's trichrome)” value [2, 6] was “significantly decreased” and the “atherosclerotic lesion area (H&E)” value [2, 6] was “significantly decreased”. For the same compound, the “atherosclerosis (plaque area, OMSB, LCA)” value ([2]; female WT mice, PCSK9-AAV (LDLR-deficient), Western diet 4 weeks, EIPA via subcutaneously implanted minipump) was “inhibited atherosclerosis; also recorded: attenuates”, the “inhibition of atherosclerotic lesion area (ORO positive area, LCA)” value ([2]; male CD36-/-/SR-A-/- mice, Western diet 4 weeks) was roughly 80% and the “inhibition of atherosclerotic lesion area (ORO positive area, LCA)” value ([2]; male WT mice, Western diet 4 weeks) was roughly 80%. For the same compound, the atherosclerosis development ([2]; wild-type and SR knockout mice) was “reduces”, the “ox- and ac-LDL internalization (Nile Red fluorescence)” value [3] was “inhibits” and the “cholesterol efflux in lipid-laden macrophages” value [4] was “does not promote”.
